Patent US5292531A, “Dermatologial external agent” (Shiseido Company Ltd., priority 1990, dated 1994)
Values after ≈ are worked out from the molar mass of the structure shown. Read-outs that look alike come from different tables or passages of the source.

Key:
[1] = tested on: Propionibacterium acnes standard strain (ATCC 11827); assay: Minimum growth inhibitory concentration (MIC), GAM agar medium pH 7.3±0.1 (Test Example 1); assay type: cell-based
Experimental: The growth inhibitory effects of tetrahydroabietic acid salts against Acne bacterium, which is a Gram-positive anaerobic bacterium were evaluated as follows.
Using a GAM agar medium produced by Nissui K. K. as the medium, after an adjustment of the pH of the medium to 7.3±0.1, a minimum growth inhibitory concentration (MIC) of sodium tetrahydroabietate and sodium salt of hydrogenated rosin, needed for a Propionibacterium acnes standard strain (ATCC 11827) was measured and evaluated.
As a Control, MIC's of substances generally known to have an antibacterial action (isopropylmethylphenol, berberine chloride, thioxolone, abietic acid) were also measured.

[2] = tested on: Propionibacterium avidum, ATCC 25577; assay: Growth inhibitory band around filter paper disc (Test Example 2); assay type: cell-based; conditions: 0.05 ml of 10% acetone solution on 8 mm disc, 37° C., 3 days, anaerobic
Experimental: Using an ABCM medium (Eikensha K. K.) as the antibacterial active medium, the medium was heated in an autoclave at a temperature of 115° C. for 15 minutes. A filter paper disc (8 mm.phi.) impregnated with 0.05 ml of 10% acetone solution of each sample was adhered to an agar plate to which Propionibacterium avidum, ATCC 25577 was previously inoculated and dispersed thereon, and anaerobically cultured at 37° C. for 3 days. The diameter of the transparent band (Propionibacterium avidum growth inhibitory band) formed around the filter paper upon completion of the culturing was measured, and the antibacterial power determined therefrom.

[3] = Cutibacterium acnes, ATCC11827, GAM agar medium, pH 7.3±0.1, read-out: MIC

Structure (SMILES): CC(C)C1=CC2=CC[C@@H]3[C@](C)(CCC[C@@]3(C)C(=O)O)[C@H]2CC1 [Abietic acid]
- MIC [1, 3]: 20 µg/mL (≈ 66.1 µM)
- zone of inhibition at 10 % ([2]; Cutibacterium avidum, ATCC25577, 72 h, read-out: Inhibitory band diameter): 15 mm

Structure (SMILES): COc1ccc2cc3[n+](cc2c1OC)CCc1cc2c(cc1-3)OCO2 [Berberline chloride, berberine chloride]
- MIC ([1]; Cutibacterium acnes, ATCC11827, pH 7.3): 100 µg/mL

Structure (SMILES): Cc1cc(O)ccc1C(C)C [Isopropylmethylphenol]
- MIC ([1]; GAM agar medium, pH 7.3±0.1): 100 ppm

Structure (SMILES): CC(C)C1CC[C@H]2C(CC[C@@H]3[C@]2(C)CCC[C@@]3(C)C(=O)[O-])C1.[Na+] (stereo partly shown) [Sodium tetrahydroabietate]
- MIC ([1]; GAM agar medium, pH 7.3±0.1): 5 ppm
- Antibacterial power compared with other antibacterial substances ([1]; Table 1, in words): far stronger antibacterial power than other antibacterial substances
- Inhibitory band diameter [2]: 17 mm

Structure (SMILES): CC(C)[C@@H]1CC[C@H]2[C@@H](CC[C@@H]3[C@]2(C)CCC[C@@]3(C)C(=O)O)C1 [Tetrahydroabietic acid]
- MIC ([1]; GAM agar medium, pH 7.3±0.1): 3 ppm
- Inhibitory band diameter [2]: 18 mm

Structure (SMILES): O=c1oc2cc(O)ccc2s1 [Thioxolone]
- MIC [1, 3]: 50 µg/mL (≈ 297 µM)
